# Several values for one entry are separate records, joined by “and”; a condition that tells them apart may be missing. Identical values can stand only once. Records with an inconclusive call do not appear.
# Tested on: BDF1 mice, colon carcinoma 38 sc, T/C %
# Assay: NCI In Vivo Anticancer Drug Screen. Data for tumor model Colon Carcinoma 38 (subcutaneous) in B6D2F1 (BDF1) mice
# Settings: endpoint: median tumor weight (est.), higher = larger tumour
# Method in brief: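 T/C readout: treated group (T) measurement over vehicle control group (C) measurement. Endpoint is survival or tumor size in mice bearing a transplanted tumor.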
# [1] = dose: 25.0 mg/kg/injection, schedule: Q07DX002 (ip), vehicle: saline with Tween-80
# [2] = dose: 50.0 mg/kg/injection, schedule: Q07DX002 (ip), vehicle: saline with Tween-80
# [3] = dose: 200.0 mg/kg/injection, schedule: Q07DX002 (ip), vehicle: saline with Tween-80
# [4] = dose: 50.0 mg/kg/injection, schedule: Q07DX002 (ip), vehicle: Klucel (hydroxypropylcellulose) (HPC)
# [5] = dose: 1.0 mg/kg/injection, schedule: Q07DX003 (ip), vehicle: saline
# [6] = dose: 2.0 mg/kg/injection, schedule: Q07DX003 (ip), vehicle: saline
# [7] = dose: 50.0 mg/kg/injection, schedule: Q07DX002 (ip), vehicle: water
# [8] = dose: 100.0 mg/kg/injection, schedule: Q07DX002 (ip), vehicle: water
structure (smiles),measurement,setting,value
N=C1C=C[C@]2(O)C[C@H](Cl)CN12,T/C,"dose: 1.56 mg/kg/injection, schedule: Q07DX002 (ip), vehicle: saline",73 % of control
same,T/C,"dose: 3.12 mg/kg/injection, schedule: Q07DX002 (ip), vehicle: saline",79 % of control
same,T/C,"dose: 6.25 mg/kg/injection, schedule: Q07DX002 (ip), vehicle: saline",71 % of control
same,T/C,"dose: 12.5 mg/kg/injection, schedule: Q07DX002 (ip), vehicle: saline",88 % of control
CNc1cccnc1/C=N/NC(N)=S,T/C,[1],119 % of control
same,T/C,[2],95 % of control
same,T/C,[3],45 % of control and 66 % of control
same,T/C,"dose: 400.0 mg/kg/injection, schedule: Q07DX002 (ip), vehicle: saline with Tween-80",32 % of control and 33 % of control
NCCc1ccc(O)c(O)c1,T/C,"dose: 112.5 mg/kg/injection, schedule: Q07DX002 (ip), vehicle: Klucel (hydroxypropylcellulose) (HPC)",122 % of control
same,T/C,"dose: 225.0 mg/kg/injection, schedule: Q07DX002 (ip), vehicle: Klucel (hydroxypropylcellulose) (HPC)",109 % of control and 87 % of control
same,T/C,"dose: 450.0 mg/kg/injection, schedule: Q07DX002 (ip), vehicle: Klucel (hydroxypropylcellulose) (HPC)",113 % of control and 103 % of control
same,T/C,"dose: 900.0 mg/kg/injection, schedule: Q07DX002 (ip), vehicle: Klucel (hydroxypropylcellulose) (HPC)",95 % of control and 97 % of control
CCCCN(CCCC)C(Cl)=Nc1ccccc1,T/C,"dose: 12.5 mg/kg/injection, schedule: Q07DX002 (ip), vehicle: Klucel (hydroxypropylcellulose) (HPC)",111 % of control and 118 % of control
same,T/C,"dose: 25.0 mg/kg/injection, schedule: Q07DX002 (ip), vehicle: Klucel (hydroxypropylcellulose) (HPC)",93 % of control and 94 % of control
same,T/C,[4],68 % of control and 89 % of control
CSc1cc(=O)n2c3ccccc3c3ccnc1c32,T/C,"dose: 1.25 mg/kg/injection, schedule: Q07DX002 (ip), vehicle: saline with Tween-80",60 % of control
same,T/C,"dose: 2.5 mg/kg/injection, schedule: Q07DX002 (ip), vehicle: saline with Tween-80",57 % of control and 77 % of control
COC(=O)C[C@](O)(CCCC(C)(C)O)C(=O)O[C@@H]1C(OC)=C[C@]23CCCN2CCc2cc4c(cc2[C@H]13)OCO4,T/C,"dose: 0.25 mg/kg/injection, schedule: Q07DX003 (ip), vehicle: saline",93 % of control
same,T/C,"dose: 0.5 mg/kg/injection, schedule: Q07DX003 (ip), vehicle: saline",95 % of control
same,T/C,[5],64 % of control
same,T/C,[6],53 % of control
COC(=O)C12OCC34C(CC5C(C)C6=CC(=O)OC6=CC5(C)C3C(O)C1O)OC(=O)C(OC(C)=O)C24 (stereo unspecified),T/C,"dose: 0.25 mg/kg/injection, schedule: Q07DX002 (ip), vehicle: saline + alcohol",86 % of control
same,T/C,"dose: 0.5 mg/kg/injection, schedule: Q07DX002 (ip), vehicle: saline + alcohol",65 % of control
same,T/C,"dose: 1.0 mg/kg/injection, schedule: Q07DX002 (ip), vehicle: saline + alcohol",96 % of control
same,T/C,"dose: 2.0 mg/kg/injection, schedule: Q07DX002 (ip), vehicle: saline + alcohol",105 % of control
same,T/C,"dose: 4.0 mg/kg/injection, schedule: Q07DX002 (ip), vehicle: saline + alcohol",114 % of control
OC(C1CO1)C(O)C1CO1 (stereo unspecified),T/C,"dose: 1.0 mg/kg/injection, schedule: Q07DX002 (ip), vehicle: saline",83 % of control
same,T/C,[5],71 % of control and 81 % of control
same,T/C,"dose: 2.0 mg/kg/injection, schedule: Q07DX002 (ip), vehicle: saline",114 % of control
same,T/C,[6],70 % of control and 86 % of control
same,T/C,"dose: 4.0 mg/kg/injection, schedule: Q07DX003 (ip), vehicle: saline",5 % of control and 30 % of control
same,T/C,"dose: 8.0 mg/kg/injection, schedule: Q07DX002 (ip), vehicle: saline",58 % of control
same,T/C,"dose: 8.0 mg/kg/injection, schedule: Q07DX003 (ip), vehicle: saline",8 % of control and 20 % of control
CCN(CC)CCNc1ccc(C)c2sc3ccc(O)cc3c(=O)c12,T/C,[1],92 % of control
same,T/C,[2],74 % of control
same,T/C,"dose: 100.0 mg/kg/injection, schedule: Q07DX002 (ip), vehicle: saline with Tween-80",68 % of control
same,T/C,[3],33 % of control
NC1=NC(O)C=C1 (stereo unspecified),T/C,"dose: 7.5 mg/kg/injection, schedule: Q07DX002 (ip), vehicle: saline",90 % of control
same,T/C,"dose: 15.0 mg/kg/injection, schedule: Q07DX002 (ip), vehicle: saline",103 % of control
same,T/C,"dose: 30.0 mg/kg/injection, schedule: Q07DX002 (ip), vehicle: saline",100 % of control
same,T/C,"dose: 60.0 mg/kg/injection, schedule: Q07DX002 (ip), vehicle: saline",87 % of control
CC(C)[C@](O)(C(=O)OCC1=CCN2CC[C@@H](O)[C@@H]12)[C@H](C)O,T/C,"dose: 12.5 mg/kg/injection, schedule: Q07DX002 (ip), vehicle: suspension in saline",123 % of control
same,T/C,"dose: 25.0 mg/kg/injection, schedule: Q07DX002 (ip), vehicle: suspension in saline",76 % of control
same,T/C,"dose: 50.0 mg/kg/injection, schedule: Q07DX002 (ip), vehicle: saline",85 % of control
same,T/C,"dose: 50.0 mg/kg/injection, schedule: Q07DX002 (ip), vehicle: suspension in saline",74 % of control
same,T/C,[7],73 % of control
same,T/C,"dose: 100.0 mg/kg/injection, schedule: Q07DX002 (ip), vehicle: suspension in saline",56 % of control
same,T/C,[8],184 % of control
same,T/C,"dose: 200.0 mg/kg/injection, schedule: Q07DX002 (ip), vehicle: saline",105 % of control
same,T/C,"dose: 200.0 mg/kg/injection, schedule: Q07DX002 (ip), vehicle: suspension in saline",98 % of control
same,T/C,"dose: 400.0 mg/kg/injection, schedule: Q07DX002 (ip), vehicle: saline",81 % of control
same,T/C,"dose: 400.0 mg/kg/injection, schedule: Q07DX002 (ip), vehicle: suspension in saline",95 % of control
same,T/C,"dose: 400.0 mg/kg/injection, schedule: Q07DX002 (ip), vehicle: water",52 % of control
NC(C(=O)O)c1ccc(CBr)cc1 (stereo unspecified),T/C,"dose: 12.5 mg/kg/injection, schedule: Q07DX002 (ip), vehicle: saline with Tween-80",151 % of control
same,T/C,[1],106 % of control
same,T/C,[2],182 % of control
Cn1cnc([N+](=O)[O-])c1[Se]c1nc(N)nc2nc[nH]c12,T/C,"dose: 3.12 mg/kg/injection, schedule: Q07DX002 (ip), vehicle: water",62 % of control
same,T/C,"dose: 6.25 mg/kg/injection, schedule: Q07DX002 (ip), vehicle: water",36 % of control
same,T/C,"dose: 12.5 mg/kg/injection, schedule: Q07DX002 (ip), vehicle: water",87 % of control
same,T/C,"dose: 25.0 mg/kg/injection, schedule: Q07DX002 (ip), vehicle: water",73 % of control
same,T/C,[7],54 % of control
same,T/C,[8],57 % of control
O=Cc1ccc(C=O)c(Cl)c1,T/C,[4],107 % of control
same,T/C,"dose: 100.0 mg/kg/injection, schedule: Q07DX002 (ip), vehicle: Klucel (hydroxypropylcellulose) (HPC)",79 % of control
same,T/C,"dose: 200.0 mg/kg/injection, schedule: Q07DX002 (ip), vehicle: Klucel (hydroxypropylcellulose) (HPC)",95 % of control
same,T/C,"dose: 400.0 mg/kg/injection, schedule: Q07DX002 (ip), vehicle: Klucel (hydroxypropylcellulose) (HPC)",75 % of control
CC(C)(C)c1ccc(CN2CCN(C(c3ccccc3)c3ccc(Cl)cc3)CC2)cc1 (stereo unspecified),T/C,"dose: 8.0 mg/kg/injection, schedule: Q07DX002 (ip), vehicle: Klucel (hydroxypropylcellulose) (HPC)",92 % of control
same,T/C,"dose: 16.0 mg/kg/injection, schedule: Q07DX002 (ip), vehicle: Klucel (hydroxypropylcellulose) (HPC)",34 % of control
same,T/C,"dose: 32.0 mg/kg/injection, schedule: Q07DX002 (ip), vehicle: Klucel (hydroxypropylcellulose) (HPC)",82 % of control
same,T/C,"dose: 64.0 mg/kg/injection, schedule: Q07DX002 (ip), vehicle: Klucel (hydroxypropylcellulose) (HPC)",89 % of control
same,T/C,"dose: 256.0 mg/kg/injection, schedule: Q07DX002 (ip), vehicle: Klucel (hydroxypropylcellulose) (HPC)",87 % of control

# From PubChem BioAssay AID212 (DTP/NCI, 2004)
